Source: publication PMC6930633, “Synthesis and Biological Evaluation of BODIPY-PF-543” (Molecules, 2019)

Target: T1, Sphingosine kinase 1 (SK1) (Homo sapiens, UniProt Q9NYA1)
T1 construct: gene SPHK1
Experiment: recombinant SK1 luminescent ATP-detection kinase activity assay (Echelon kit)
Format: biochemical

T1 sequence (Q9NYA1 whole entry): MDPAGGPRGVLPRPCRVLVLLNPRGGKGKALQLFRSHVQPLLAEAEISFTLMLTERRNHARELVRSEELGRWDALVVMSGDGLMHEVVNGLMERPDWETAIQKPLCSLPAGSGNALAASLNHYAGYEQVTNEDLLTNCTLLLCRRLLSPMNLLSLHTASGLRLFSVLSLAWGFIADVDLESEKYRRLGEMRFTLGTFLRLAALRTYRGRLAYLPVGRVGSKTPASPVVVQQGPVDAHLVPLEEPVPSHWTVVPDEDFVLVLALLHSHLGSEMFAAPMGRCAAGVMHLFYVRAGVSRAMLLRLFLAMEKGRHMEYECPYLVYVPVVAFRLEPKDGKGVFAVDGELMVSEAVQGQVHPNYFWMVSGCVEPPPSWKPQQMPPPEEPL

Question: With `CC1=CC(C)=[N+]2C1=C(c1ccc(-c3cn(Cc4cc(C)cc(OCc5ccc(CN6CCC[C@@H]6CO)cc5)c4)nn3)cc1)c1c(C)cc(C)n1[B-]2(F)F` [compound 2, (R)-(1-(4-((3-((4-(4-(5,5-Difluoro-1,3,7,9-tetramethyl-5H-4l4,5l4-dipyrrolo[1,2-c:2’,1’-f][1,3,2]diazaborinin-10-yl)phenyl)-1H-1,2,3-triazol-1-yl)methyl)-5-methylphenoxy)methyl)benzyl)pyrrolidin-2-yl)methanol] as the compound, how does the IC50 read?
Answer: 19.9 nM
